Assay results from patent US12448392B2, “Spiropiperidine derivatives” (89BIO LTD, priority 2016, dated 2025).
Counter-ions that a name gives are not always drawn. Like-named read-outs stand apart in the source and are kept apart here.

Target: T1, recombinant human baculovirus-expressed GST-tagged FASN (Homo sapiens, UniProt P49327)
T1 construct: GST
Experiment: biochemical

[1] = 5 nM FASN, 150 μM NADPH, 10 μM acetyl-CoA, 25 μM malonyl-CoA, 90 minutes incubation, read-out: IC50 data for Compounds of Formula I, Activity

T1 sequence (P49327 whole entry): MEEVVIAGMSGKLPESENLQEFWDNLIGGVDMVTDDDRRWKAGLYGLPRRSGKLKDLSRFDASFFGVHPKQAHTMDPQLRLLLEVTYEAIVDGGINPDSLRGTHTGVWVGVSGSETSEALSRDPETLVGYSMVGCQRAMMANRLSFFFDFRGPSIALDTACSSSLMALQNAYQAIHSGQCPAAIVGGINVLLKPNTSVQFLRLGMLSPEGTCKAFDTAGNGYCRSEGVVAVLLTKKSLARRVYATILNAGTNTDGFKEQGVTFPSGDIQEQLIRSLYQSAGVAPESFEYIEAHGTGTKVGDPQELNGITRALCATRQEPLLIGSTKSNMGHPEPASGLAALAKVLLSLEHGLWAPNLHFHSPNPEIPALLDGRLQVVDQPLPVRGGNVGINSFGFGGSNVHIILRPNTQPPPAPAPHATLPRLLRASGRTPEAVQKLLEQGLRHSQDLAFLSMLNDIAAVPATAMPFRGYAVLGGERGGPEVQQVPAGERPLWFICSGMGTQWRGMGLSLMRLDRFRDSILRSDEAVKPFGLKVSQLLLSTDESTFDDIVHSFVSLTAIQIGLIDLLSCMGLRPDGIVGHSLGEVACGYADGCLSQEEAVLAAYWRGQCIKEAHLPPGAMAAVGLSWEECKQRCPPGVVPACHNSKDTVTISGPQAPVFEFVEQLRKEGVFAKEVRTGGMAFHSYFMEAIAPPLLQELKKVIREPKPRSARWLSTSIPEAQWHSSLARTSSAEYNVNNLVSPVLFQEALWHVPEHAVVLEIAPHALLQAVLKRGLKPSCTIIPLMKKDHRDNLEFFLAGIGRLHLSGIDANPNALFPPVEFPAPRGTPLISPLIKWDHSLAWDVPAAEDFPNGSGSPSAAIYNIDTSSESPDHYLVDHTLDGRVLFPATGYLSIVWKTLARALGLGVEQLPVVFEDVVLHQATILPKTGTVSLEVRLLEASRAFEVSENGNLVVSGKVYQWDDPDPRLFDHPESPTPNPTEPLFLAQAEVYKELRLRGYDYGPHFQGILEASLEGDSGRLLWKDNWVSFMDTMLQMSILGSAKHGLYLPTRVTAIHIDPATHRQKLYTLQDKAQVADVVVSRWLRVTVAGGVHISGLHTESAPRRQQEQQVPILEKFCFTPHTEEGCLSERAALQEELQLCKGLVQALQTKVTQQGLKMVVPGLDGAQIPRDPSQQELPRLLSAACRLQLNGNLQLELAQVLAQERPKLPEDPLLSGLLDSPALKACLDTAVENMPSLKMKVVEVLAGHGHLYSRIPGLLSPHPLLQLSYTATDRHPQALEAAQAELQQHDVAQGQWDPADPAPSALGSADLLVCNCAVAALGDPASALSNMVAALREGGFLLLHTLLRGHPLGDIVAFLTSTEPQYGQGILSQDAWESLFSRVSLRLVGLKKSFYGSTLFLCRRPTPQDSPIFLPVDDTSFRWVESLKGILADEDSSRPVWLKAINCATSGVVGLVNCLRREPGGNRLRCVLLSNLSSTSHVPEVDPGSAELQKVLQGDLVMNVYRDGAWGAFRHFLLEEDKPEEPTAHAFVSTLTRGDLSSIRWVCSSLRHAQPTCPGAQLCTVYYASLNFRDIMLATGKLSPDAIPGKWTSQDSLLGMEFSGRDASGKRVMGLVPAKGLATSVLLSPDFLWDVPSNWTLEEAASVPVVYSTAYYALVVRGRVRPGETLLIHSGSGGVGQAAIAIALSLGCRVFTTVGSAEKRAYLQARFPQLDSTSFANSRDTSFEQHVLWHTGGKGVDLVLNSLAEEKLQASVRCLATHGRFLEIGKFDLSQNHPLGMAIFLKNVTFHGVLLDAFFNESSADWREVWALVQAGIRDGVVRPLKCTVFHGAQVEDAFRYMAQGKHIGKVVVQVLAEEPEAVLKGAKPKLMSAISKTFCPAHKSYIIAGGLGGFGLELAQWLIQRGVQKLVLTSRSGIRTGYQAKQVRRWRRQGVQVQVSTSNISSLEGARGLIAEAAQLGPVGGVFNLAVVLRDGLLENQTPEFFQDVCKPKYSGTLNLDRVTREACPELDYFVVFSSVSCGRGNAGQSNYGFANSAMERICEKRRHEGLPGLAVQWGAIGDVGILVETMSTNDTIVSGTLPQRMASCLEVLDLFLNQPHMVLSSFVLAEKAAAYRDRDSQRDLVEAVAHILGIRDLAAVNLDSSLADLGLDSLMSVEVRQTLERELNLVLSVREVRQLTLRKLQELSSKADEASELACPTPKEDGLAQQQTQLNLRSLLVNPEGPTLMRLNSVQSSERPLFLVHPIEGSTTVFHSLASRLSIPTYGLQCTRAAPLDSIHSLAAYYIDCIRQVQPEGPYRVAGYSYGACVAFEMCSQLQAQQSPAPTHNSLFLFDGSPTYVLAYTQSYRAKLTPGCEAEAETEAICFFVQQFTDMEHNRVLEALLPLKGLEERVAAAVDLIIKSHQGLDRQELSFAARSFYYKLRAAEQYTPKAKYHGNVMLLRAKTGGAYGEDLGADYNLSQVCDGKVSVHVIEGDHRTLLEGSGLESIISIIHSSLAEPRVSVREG

| SMILES | IC50 [1] | IC50 |
| --- | --- | --- |
| CCC(=O)N1CCC2(CCc3cc(-c4ccc5cccnc5c4OC)ccc3O2)CC1 [Example 19, 1-[6-(8-Methoxy-7-quinolyl)spiro[chromane-2,4′-piperidine]-1′-yl]propan-1-one] | 1 to 99 nM |  |
| CCNC(=O)N1CCC2(CC1)OCCc1cc(-c3ccc4cccnc4c3C)ccc1O2 [Example 78, N-Ethyl-7-(8-methyl-7-quinolyl)spiro[4,5-dihydro-1,3-benzodioxepine-2,4′-piperidine]-1′-carboxamide] |  | 100 to 999 nM |
| Cc1c(-c2ccc3c(c2)CCC2(CCN(C(=O)NCC4CC4)CC2)O3)ccc2cccnc12 [Example 100, N-(Cyclopropylmethyl)-6-(8-methyl-7-quinolyl)spiro[chromane-2,4′-piperidine]-1′-carboxamide] | 1 to 99 nM |  |
| CCC(=O)N1CCC2(CC1)CC(O)c1cc(-c3cnc4ccccc4c3)ccc1O2 (stereo not shown) [Example 42, 1-[4-Hydroxy-6-(3-quinolyl)spiro[chromane-2,4′-piperidine]-1′-yl]propan-1-one] | 100 to 999 nM |  |
| CCC(=O)N1CCC2(C=Cc3cc(-c4cnc5ccccc5c4)ccc3O2)CC1 [Example 43, 1-[6-(3-Quinolyl)spiro[chromene-2,4′-piperidine]-1′-yl]propan-1-one] | 1 to 99 nM |  |
| O=C(C1CCC1)N1CCC2(C=Cc3cc(-c4cnc5ccccc5c4)ccc3O2)CC1 [Example 45, Cyclobutyl-[6-(3-quinolyl)spiro[chromene-2,4′-piperidine]-1′-yl]methanone] | 1 to 99 nM |  |
| CCNC(=O)N1CCC2(CCc3cc(-c4ccc5cccnc5c4Cl)ccc3O2)CC1 [Example 66, 6-(8-chloro-7-quinolyl)-N-ethyl-spiro[chromane-2,4′-piperidine]-1′-carboxamide] | 1 to 99 nM |  |
| O=C(C1CC1)N1CCC2(CC1)OCc1cc(-c3cnc4ccccc4c3)ccc1O2 [Example 40, Cyclopropyl-[6-(3-quinolyl)spiro[4H-1,3-benzodioxine-2,4′-piperidine]-1′-yl]methanone] |  | 1 to 99 nM |
| O=C(C1CC1)N1CCC2(CC1)OCc1cc(-c3ccccn3)ccc1O2 [Example 219, Cyclopropyl-[6-(2-pyridyl)spiro[4H-1,3-benzodioxine-2,4′-piperidine]-1′-yl]methanone, HCl] |  | 1000 to 10000 nM |
| O=C(C1CC1)N1CCC2(CC1)OCc1cc(-c3ccncc3)ccc1O2 [Example 230, Cyclopropyl-[6-(4-pyridyl)spiro[4H-1,3-benzodioxine-2,4′-piperidine]-1′-yl]-methanone, HCl] |  | 1000 to 10000 nM |
| CCONC(=O)N1CCC2(CC1)OCc1cc(-c3ccc4ccnn4c3C)ccc1O2 [Example 129, N-Ethoxy-6-(7-methylpyrazolo[1,5-a]pyridin-6-yl)spiro[4H-1,3-benzodioxine-2,4′-piperidine]-1′-carboxamide] |  | 1 to 99 nM |
| NC(=O)N1CCC2(CC1)OCc1cc(-c3cnc4sccc4c3)ccc1O2 [Example 89, 6-thieno[2,3-b]pyridin-5-ylspiro[4H-1,3-benzodioxine-2,4′-piperidine]-1′-carboxamide] |  | 1000 to 10000 nM |
| Cc1c(-c2ccc3c(c2)CCC2(CCN(C(=O)NC(C)C)CC2)O3)ccc2nccn12 [Example 111, N-Isopropyl-6-(5-methylimidazo[1,2-a]pyridin-6-yl)spiro[chromane-2,4′-piperidine]-1′-carboxamide] | 100 to 999 nM |  |
| CCNC(=O)N1CCC2(CC1)OCc1cc(-c3ccc4ccnn4c3C)ccc1O2 [Example 126, N-Ethyl-6-(7-methylpyrazolo[1,5-a]pyridin-6-yl)spiro[4H-1,3-benzodioxine-2,4′-piperidine]-1′-carboxamide] |  | 1 to 99 nM |
| O=C(C1CC1)N1CCC2(CC1)OCc1cc(-c3cnc4cccnc4c3)ccc1O2 [Example 37, Cyclopropyl-[6-(1,5-naphthyridin-3-yl)spiro[4H-1,3-benzodioxine-2,4′-piperidine]-1′-yl]methanone] |  | 1000 to 10000 nM |
| O=C(NOC1CCCCO1)N1CCC2(CC1)OCc1cc(-c3cc4ccccc4cn3)ccc1O2 (stereo not shown) [Example 144, 6-(3-Isoquinolyl)-N-tetrahydropyran-2-yloxy-spiro[4H-1,3-benzodioxine-2,4′-piperidine]-1′-carboxamide] |  | 100 to 999 nM |
| CCONC(=O)N1CCC2(CC1)OCc1cc(-c3ccc4c(C)nccc4c3)ccc1O2 [Example 196, N-Ethoxy-6-(1-methyl-6-isoquinolyl)spiro[4H-1,3-benzodioxine-2,4′-piperidine]-1′-carboxamide] |  | 1 to 99 nM |
| Cc1nccc2cc(-c3ccc4c(c3)COC3(CCN(C(=O)NO)CC3)O4)ccc12 [Example 199, 6-(1-Methyl-6-isoquinolyl)spiro[4H-1,3-benzodioxine-2,4′-piperidine]-1′-carbohydroxamic acid] |  | 1000 to 10000 nM |
| CCONC(=O)N1CCC2(CCc3cc(-c4ccc5nccn5c4C)ccc3O2)CC1 [Example 107, N-Ethoxy-6-(5-methylimidazo[1,2-a]pyridin-6-yl)spiro[chromane-2,4′-piperidine]-1′-carboxamide] | 1 to 99 nM |  |
| Cc1cc(-c2ccc3c(c2)CCC2(CCN(C(=O)C4CC4)CC2)O3)cc2cccnc12 [Example 18, Cyclopropyl-[6-(8-methyl-6-quinolyl)spiro[chromane-2,4′-piperidine]-1′-yl]methanone HCl] | 100 to 999 nM |  |

| SMILES | IC50 [1] | IC50 |
| --- | --- | --- |
| CONC(=O)N1CCC2(CCc3cc(-c4ccc5cccnc5c4C)cc(Cl)c3O2)CC1 [Example 250, 8-Chloro-N-methoxy-6-(8-methyl-7-quinolyl)spiro[chromane-2,4′-piperidine]-1′-carboxamide] | 100 to 999 nM |  |
| NC(=O)N1CCC2(CCc3cc(-c4cnc5ccccc5c4)ccc3O2)CC1 [Example 72, 6-(3-Quinolyl)spiro[chromane-2,4′-piperidine]-1′-carboxamide] | 100 to 999 nM |  |
| Cc1nccc2cc(-c3ccc4c(c3F)CCC3(CCN(C(N)=O)CC3)O4)ccc12 [Example 239, 5-Fluoro-6-(1-methyl-6-isoquinolyl)spiro[chromane-2,4′-piperidine]-1′carboxamide] | 1000 to 10000 nM |  |
| NC(=O)N1CCC2(CCc3cc(-c4ccc5cccnc5c4Cl)ccc3O2)CC1 [Example 63, 6-(8-Chloro-7-quinolyl)spiro[chromane-2,4′-piperidine]-1′-carboxamide] | 1 to 99 nM |  |
| CCONC(=O)N1CCC2(CC1)Cc1cc(-c3ccc4cccnc4c3OC)ccc1O2 [Example 167, N-Ethoxy-5-(8-methoxy-7-quinolyl)spiro[3H-benzofuran-2,4′-piperidine]-1′-carboxamide] | 1000 to 10000 nM |  |
| CONC(=O)N1CCC2(CCc3cc(-c4cnc5ccccc5c4C)ccc3O2)CC1 [Example 192, N-Methoxy-6-(4-methyl-3-quinolyl)spiro[chromane-2,4′-piperidine]-1′-carboxamide] | 1 to 99 nM |  |
| CCNC(=O)N1CCC2(CC1)Cc1cc(-c3ccc4cccnc4c3C)ccc1O2 [Example 156, N-Ethyl-5-(8-methyl-7-quinolyl)spiro[3H-benzofuran-2,4′-piperidine]-1′-carboxamide] | 1000 to 10000 nM |  |
| Cc1c(-c2ccc3c(c2)CCC2(CCN(C(N)=O)CC2)O3)ccc2ccnn12 [Example 114, 6-(7-Methylpyrazolo[1,5-a]pyridin-6-yl)spiro[chromane-2,4′-piperidine]-1′-carboxamide] | 1 to 99 nM |  |
| O=C([C@H]1CCCO1)N1CCC2(CC1)OCc1cc(-c3ccncc3)ccc1O2 [Example 231, [6-(4-Pyridyl)spiro[4H-1,3-benzodioxine-2,4′-piperidine]-1′-yl]-[(2R)-tetrahydrofuran-2-yl]methanone, HCl] |  | 100 to 999 nM |
| O=C(NO)N1CCC2(CC1)OCc1cc(-c3ccc4cccnc4c3Cl)ccc1O2 [Example 136, 6-(8-Chloro-7-quinolyl)spiro[4H-1,3-benzodioxine-2,4′-piperidine]-1′-carbohydroxamic acid] |  | 100 to 999 nM |
| Cn1cnc2cc(-c3ccc4c(c3)CCC3(CCN(C(N)=O)CC3)O4)ccc21 [Example 81, 6-(1-Methylbenzimidazol-5-yl)spiro[chromane-2,4′-piperidine]-1′-carboxamide] | 100 to 999 nM |  |
| O=C(C1CC1)N1CCC2(CC1)OCc1cc(-c3cccnc3)ccc1O2 [Example 225, Cyclopropyl-[6-(3-pyridyl)spiro[4H-1,3-benzodioxine-2,4′-piperidine]-1′-yl]methanone, HCl] |  | 1000 to 10000 nM |
| O=C(NOC1CCCCO1)N1CCC2(CCc3cc(-c4cc5ccccc5cn4)ccc3O2)CC1 (stereo not shown) [Example 146, 6-(3-Isoquinolyl)-N-tetrahydropyran-2-yloxy-spiro[chromane-2,4′-piperidine]-1′-carboxamide] | 100 to 999 nM |  |
| Cc1nccc2cc(-c3ccc4c(c3)CCC3(CCN(C(N)=O)CC3)O4)ccc12 [Example 183, 6-(1-Methyl-6-isoquinolyl)spiro[chromane-2,4′-piperidine]-1′-carboxamide] | 100 to 999 nM |  |
| Cc1c(-c2ccc3c(c2)CC2(CCN(C(N)=O)CC2)O3)ccc2cccnc12 [Example 152, 5-(8-Methyl-7-quinolyl)spiro[3H-benzofuran-2,4′-piperidine]-1′-carboxamide] | 1 to 99 nM |  |
| Cc1nccc2cc(-c3cc4c(cc3F)OC3(CC4)CCN(C(N)=O)CC3)ccc12 [Example 234, 7-Fluoro-6-(1-methyl-6-isoquinolyl)spiro[chromane-2,4′-piperidine]-1′-carboxamide] | 1000 to 10000 nM |  |
| CCONC(=O)N1CCC2(CC1)OCc1cc(-c3ccc4cccnc4c3Cl)ccc1O2 [Example 135, 6-(8-Chloro-7-quinolyl)-N-ethoxy-spiro[4H-1,3-benzodioxine-2,4′-piperidine]-1′-carboxamide] |  | 1 to 99 nM |
| Cc1c(-c2ccc3c(c2)CCC2(CCN(C(=O)C4CC4)CC2)O3)cnc2ccccc12 [Example 3, Cyclopropyl-[6-(4-methyl-3-quinolyl)spiro[chromane-2,4′-piperidine]-1′-yl]-methanone HCl] | 1 to 99 nM |  |
| CCCONC(=O)N1CCC2(CCc3cc(-c4ccc5c(C)nccc5c4)ccc3O2)CC1 [Example 186, 6-(1-Methyl-6-isoquinolyl)-N-propoxy-spiro[chromane-2,4′-piperidine]-1′-carboxamide] | 1 to 99 nM |  |
| CCONC(=O)N1CCC2(CC1)Cc1cc(-c3ccc4cccnc4c3C)ccc1O2 [Example 154, N-Ethoxy-5-(8-methyl-7-quinolyl)spiro[3H-benzofuran-2,4′-piperidine]-1′-carboxamide] | 1000 to 10000 nM |  |
